In brackets after ≈: the same amount, converted by molar mass.
Tests used:
[1] = biological target: T1, recombinant HIV-1 protease (Human immunodeficiency virus type 1 group M subtype B, UniProt P04585); experiment: HIV protease inhibition activity (enzyme activity inhibition rate); format: biochemical; conditions: 50 nM final concentration of test compound; 60 min at 37° C.; read-out: Enzyme activity inhibition rate (%) (addition concentration of 50 nM)
T1 construct: measured using a recombinant HIV-1 protease
Procedure: The protease activity was measured using a recombinant HIV-1 protease (see Biochemistry, 250 (9)-264 (1990)) and a synthesized peptide substrate. The inhibition rate was calculated by determining a peptide fragment generated by cleavage between Tyr-Pro of the synthesized substrate after the reaction of 60 min at 37° C. using a reversed phase HPLC in the presence of the test compounds in various concentrations (see, for example, Japanese Patent Application Laid-open No. 170722/1993).
Examples of the evaluation results of the HIV protease inhibition activity of the tripeptide compound of the present invention by the above-described method is shown in Table 1. […] The concentration of the test compounds in Table 1 represents the final concentration in the reaction mixture.

[2] = biological target: T1, recombinant HIV-1 protease; experiment: Evaluation of enzyme inhibition constant Ki; format: biochemical
Procedure: The synthesized peptide substrate having a sequence of H-Lys-Ala-Arg-Val-Tyr-Phe (4-NO2)-Glu-Ala-Nle-NH2 (SEQ ID NO. 1) was used in this experiment. The enzyme reaction was measured using a reversed phase HPLC by determining the C-terminal peptide fraction produced by cleavage just behind Tyr in the synthesized substrate which is obtained by reacting the following composition for 15 min. at 37° C. and stopping the reaction by the addition of 1N HCl (75 μl).
Composition of reaction mixture
Recombinant HIV-1 protease enzyme solution 10 μl
0.5 mM synthetic substrate aqueous solution 10 μl
DMSO Inhibitor solution 5 μl
0.2 M MES solution 25 μl
(1 M NaCl, 2 mM EDTA-2Na, 2 mM DTT, pH 5.5)
Column: Waters Nova-pak C18 (3.9×75 mm)
Eluent: A; water (0.1% TFA)
B; acetonitrile (0.1% TFA)
Flow rate: 2 ml/min isocratic; 10% B solution
Detection: Fluorescence 305 nm, excitation 275 nm

[3] = test system: HIV virus strain HIV-1 IIIB; experiment: Anti-HIV activity in HIV infected CEM-SS cells (XTT method); format: cell-based; conditions: Human immunodeficiency virus 1, 144 h, HIV-1 IIIB infected CEM-SS cell, six days at 37° C.
Procedure: (§1) EP 0751145 A2). On a 96-well micro titre plate, the test compounds were added to the culture medium in various concentrations, then the HIV infected CEM-SS cell was added and incubated for six days at 37° C. using a CO2 incubator. The number of the living cells was then measured by a XTT method. On the other hand, in order to examine the cytotoxicity of the test compounds, the test compounds were added in various concentrations and the HIV virus non-infected cell was incubated under similar conditions. As the reference group, the HIV infected CEM-SS cell was incubated without the addition of the test compounds. Moreover, the HIV virus non-infected cell was incubated without the addition of the test compound as the control group. The anti-virus activity was evaluated in a concentration in which the cytotoxic effect caused by the HIV infected virus in the above HIV infected cell group was inhibited 50 percent (EC50, 50% effective concentration), and the cytotoxicity was evaluated in a concentration in which the cytotoxic effect by the addition of the test compound in the HIV virus non-infected cell group occurred at 50 percent (TC50, 50% cytotoxic concentration) respectively.

CEM-SS cell = experiment: Cytotoxicity in HIV virus non-infected CEM-SS cells (XTT method); format: cell-based; conditions: six days, highest concentration 1.0 μg/ml
Procedure: as §1

[4] = Pharmacokinetics test (digestive tract absorption and metabolic characteristics) in rats; format: in vivo; conditions: 10 mg/kg; for F (biological utilization rate of administration in the duodenum): Id versus Iv; for MRT / T1/2 (λ): Iv; for T1/2 (λ): final phase half-life
Procedure: The metabolic characteristics of the tripeptide compound of the present invention were evaluated using rats for a test animal. As the Control Example, the result of KNI-272 ((R)-N-tert-butyl-3-{(2S,3S)-2-hydroxy-3-[N-(isoquinolin-5-yloxy)acetyl-me thylthio-L-alanyl]amino-4-phenylbutanoyl}-1,3-thiazolidine-4-carboxamide; iQoa-Mta-Apns-Thz-NHtBu) which is a tripeptide derivative known in the art, is also shown. The amount administred was 10 mg/kg. The evaluated administration methods are a method (id) of administering a solution of a fixed amount of the test compound in the duodenum of a test animal, and a method (iv) of administering the solution intravenously. After administration, blood samples were taken from the test animal and concentrations of the residual test compound in the plasma were analyzed. As indices concerning pharmacokinetics, AUC (area under medicine concentration curve in plasma), MRT (mean residence time), t1/2 (λ) (final phase half-life period), and the biological utilization rate of administration in the duodenum F were calculated.

Row | Structure (SMILES) | inhibition at 0.05 µM [1] | Ki [2] | EC50 [3] | Cytotoxicity TC50 (CEM-SS cell) | AUC ([4]; Id (in the duodenum)) | F (biological utilization rate of administration in the duodenum) [4] | MRT [4] | AUC ([4]; Iv (intravenous)) | T1/2 (λ) [4]
1 | COc1cccc2cc(C(=O)N[C@H](C(=O)N[C@@H](Cc3ccccc3)[C@H](O)C(=O)N3CSC(C)(C)[C@H]3C(=O)NCc3ccccc3C)C(C)C)oc12 [Example 16, (R)-N-(2-methylbenzyl)-3-{(2S,3S)-3-[N-(7-methoxybenzofuran-2-carbonyl)-L-valyl]amino-2-hydroxy-4-phenylbutanoyl}-5,5-dimethyl-1,3-thiazolidine-4-carb oxamide] | 97.1% | 0.014 nM | 0.0017 µg/mL (≈ 0.00238 µM) | > 1.0 µg/mL | 90 µg·min/mL | 27% | 1.12 h | 322 µg·min/mL | 1.23 h
2 | COC(=O)N[C@H](C(=O)N[C@@H](Cc1ccccc1)[C@H](O)C(=O)N1CSC(C)(C)[C@H]1C(=O)NCc1ccccc1C)C(C)C [Example 27, (R)-N-(2-methylbenzyl)-3-{(2S,3S)-2-hydroxy-3-[(S)-2-(methoxycarbonyl)amino-3-methylbutanoyl]amino-4-phenylbutanoyl}-5,5-dimethyl-1,3-thiazolidine-4-c arboxamide] | 94.9% |  | 0.026 µg/mL (≈ 0.0434 µM) | > 1.0 µg/mL | 87 µg·min/mL | 32% | 1.18 h | 272 µg·min/mL | 1.45 h
3 | CC(C)[C@H](NC(=O)COc1cccc(N(C)C)c1)C(=O)N[C@@H](Cc1ccccc1)[C@H](O)C(=O)N1CSC(C)(C)[C@H]1C(=O)NC(C)(C)C [Example 35, (R)-N-tert-butyl-3-{(2S,3S)-2-hydroxy-3-[(S)-2-(3-dimethylaminophenoxyacetyl)amino-3-methylbutanoyl]amino-4-phenylbutanoyl}-5,5-dimethyl-1,3-thiazolidine-4-carboxamide] | 96% | 0.07 nM | 0.01 µg/mL (≈ 0.0149 µM) | > 1.0 µg/mL | 105 µg·min/mL | 89% | 1.13 h | 119 µg·min/mL | 1.05 h
4 | CC[C@H](NC(=O)COc1cccc(N(C)C)c1)C(=O)N[C@@H](Cc1ccccc1)[C@H](O)C(=O)N1CSC(C)(C)[C@H]1C(=O)NC(C)(C)C [Example 36, (R)-N-tert-butyl-3-{(2S,3S)-2-hydroxy-3-[(S)-2-(3-dimethylaminophenoxyacetyl)aminobutanoyl]amino-4-phenylbutanoyl}-5,5-dimethyl-1,3-thiazolidine-4-car boxamide] | 95% |  | 0.017 µg/mL (≈ 0.0259 µM) | > 1.0 µg/mL | 185 µg·min/mL | 82% | 2.07 h | 226 µg·min/mL | 1.83 h
